According to publication PMC3681809 (Cancer cell, 2013):

Biological target: EZH1 (Homo sapiens, UniProt Q92800)
Test: histone methyltransferase selectivity assay
Type: biochemical

EZH1, sequence (Q92800 whole entry): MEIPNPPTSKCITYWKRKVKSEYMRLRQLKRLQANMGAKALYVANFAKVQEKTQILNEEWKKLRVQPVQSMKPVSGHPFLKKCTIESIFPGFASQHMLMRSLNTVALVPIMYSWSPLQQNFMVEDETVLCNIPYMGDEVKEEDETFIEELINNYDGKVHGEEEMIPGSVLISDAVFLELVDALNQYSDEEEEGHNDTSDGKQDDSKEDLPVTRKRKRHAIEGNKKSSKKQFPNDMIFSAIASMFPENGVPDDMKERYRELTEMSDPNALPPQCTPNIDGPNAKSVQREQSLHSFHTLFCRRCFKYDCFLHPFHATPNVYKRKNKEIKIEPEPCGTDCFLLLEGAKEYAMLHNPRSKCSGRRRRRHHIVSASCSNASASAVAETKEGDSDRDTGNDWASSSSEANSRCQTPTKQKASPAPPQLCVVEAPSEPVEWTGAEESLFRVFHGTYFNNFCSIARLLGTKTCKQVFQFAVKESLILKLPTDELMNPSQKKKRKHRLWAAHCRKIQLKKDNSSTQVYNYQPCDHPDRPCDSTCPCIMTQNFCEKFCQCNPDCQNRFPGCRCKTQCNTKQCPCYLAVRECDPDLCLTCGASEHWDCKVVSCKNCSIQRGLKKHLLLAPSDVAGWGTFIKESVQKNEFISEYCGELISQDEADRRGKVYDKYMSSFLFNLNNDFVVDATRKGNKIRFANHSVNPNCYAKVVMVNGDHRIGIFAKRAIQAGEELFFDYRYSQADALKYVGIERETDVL
EZH1, sequence (O75530 2-441 partner): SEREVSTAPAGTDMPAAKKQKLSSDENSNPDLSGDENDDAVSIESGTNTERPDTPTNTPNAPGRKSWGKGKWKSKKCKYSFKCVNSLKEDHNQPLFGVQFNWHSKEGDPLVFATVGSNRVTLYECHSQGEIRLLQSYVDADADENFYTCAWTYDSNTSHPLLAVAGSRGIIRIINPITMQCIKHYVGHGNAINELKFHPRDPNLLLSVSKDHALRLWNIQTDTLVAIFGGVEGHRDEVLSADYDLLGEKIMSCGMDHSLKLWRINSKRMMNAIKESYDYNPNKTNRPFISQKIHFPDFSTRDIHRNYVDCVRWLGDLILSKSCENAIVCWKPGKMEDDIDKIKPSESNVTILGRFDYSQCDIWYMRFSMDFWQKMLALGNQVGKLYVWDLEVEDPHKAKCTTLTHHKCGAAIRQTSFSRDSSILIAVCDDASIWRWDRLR
EZH1, sequence (Q15022 whole entry partner): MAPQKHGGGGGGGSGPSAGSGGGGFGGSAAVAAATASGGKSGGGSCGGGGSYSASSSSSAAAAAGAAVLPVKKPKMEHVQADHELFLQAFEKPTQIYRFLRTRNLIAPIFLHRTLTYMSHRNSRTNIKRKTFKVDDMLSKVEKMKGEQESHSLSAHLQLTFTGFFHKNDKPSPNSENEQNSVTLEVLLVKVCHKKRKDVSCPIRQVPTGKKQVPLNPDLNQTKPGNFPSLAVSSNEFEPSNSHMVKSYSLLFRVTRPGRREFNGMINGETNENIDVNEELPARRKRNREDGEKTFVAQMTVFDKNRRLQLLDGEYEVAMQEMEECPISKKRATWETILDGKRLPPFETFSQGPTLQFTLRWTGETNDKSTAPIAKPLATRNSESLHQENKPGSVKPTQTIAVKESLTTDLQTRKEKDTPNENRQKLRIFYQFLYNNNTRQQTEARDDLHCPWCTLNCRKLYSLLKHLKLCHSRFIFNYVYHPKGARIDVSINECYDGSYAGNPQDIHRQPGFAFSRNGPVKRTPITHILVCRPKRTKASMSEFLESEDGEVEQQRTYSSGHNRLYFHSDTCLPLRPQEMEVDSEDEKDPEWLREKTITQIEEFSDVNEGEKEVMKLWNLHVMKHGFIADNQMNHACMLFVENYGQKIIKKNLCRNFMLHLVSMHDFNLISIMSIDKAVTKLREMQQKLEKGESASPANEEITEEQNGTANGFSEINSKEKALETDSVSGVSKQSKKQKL

With `Cc1cc(C)c(CNC(=O)c2cc(-c3ccc(N4CCN(C)CC4)nc3)cc3c2c(C)cn3C(C)C)c(=O)[nH]1` [GSK503] the Ki was 636 nM.
